Our source for the IC50 values is US20220298141A1, “ENZYME INHIBITORS” (KALVISTA PHARMACEUTICALS LIMITED, priority 2019, published 2022).

Usually IC50 stands for the concentration that gives 50% inhibition.

Assay [1] addresses T1, Human FXIa (Homo sapiens, UniProt P03951).
T1 construct: purchased Enzyme Research Laboratories
In words: Determination of FXIa inhibitory activity in vitro (fluorogenic substrate Z-Gly-Pro-Arg-AFC). The assay is classed as biochemical. As to conditions: Selectivity, Human FXIa (Enzyme Research Laboratories), 25° C.

The target of assay [2] is T2, Human Factor XIIa (Homo sapiens, UniProt P00748).
T2 construct: purchased Enzyme Research Laboratories
T2 sequence (P00748 373-615 limits assumed): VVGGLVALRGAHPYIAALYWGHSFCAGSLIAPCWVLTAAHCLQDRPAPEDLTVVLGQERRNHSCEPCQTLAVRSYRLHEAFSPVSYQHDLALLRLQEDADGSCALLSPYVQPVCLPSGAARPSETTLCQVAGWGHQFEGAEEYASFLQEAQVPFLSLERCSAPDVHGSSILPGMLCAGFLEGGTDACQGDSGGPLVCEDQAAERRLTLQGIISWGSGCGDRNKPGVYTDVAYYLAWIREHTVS
T2 sequence (P00748 20-372 partner limits assumed): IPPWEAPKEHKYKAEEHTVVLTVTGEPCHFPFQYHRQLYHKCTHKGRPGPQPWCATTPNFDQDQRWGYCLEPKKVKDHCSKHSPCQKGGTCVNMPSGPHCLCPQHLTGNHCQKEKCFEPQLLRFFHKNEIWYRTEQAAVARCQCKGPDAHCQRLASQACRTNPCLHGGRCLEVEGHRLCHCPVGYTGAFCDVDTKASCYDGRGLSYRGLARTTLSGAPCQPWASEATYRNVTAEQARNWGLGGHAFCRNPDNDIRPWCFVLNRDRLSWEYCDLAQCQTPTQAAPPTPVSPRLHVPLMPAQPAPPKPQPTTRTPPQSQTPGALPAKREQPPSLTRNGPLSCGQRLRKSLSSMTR
The experiment in a line: Determination of Factor XIIa inhibitory activity in vitro (fluorogenic substrate H-DPro-Phe-Arg-AFC). The assay is classed as biochemical. As to conditions: Human Factor XIIa (Enzyme Research Laboratories), 25° C., read-out: Human FXIIa IC50. A digest of the protocol:
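In vitro inhibition of human Factor XIIa (sourced from Enzyme Research Laboratories) was measured by incubating the enzyme at 25° C. with the fluorogenic substrate H-DPro-Phe-Arg-AFC across a range of test compound concentrations. The initial reaction rate, taken as residual enzyme activity, was followed by the […], and IC50 values were calculated.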

T1 sequence (P03951 388-625 limits assumed): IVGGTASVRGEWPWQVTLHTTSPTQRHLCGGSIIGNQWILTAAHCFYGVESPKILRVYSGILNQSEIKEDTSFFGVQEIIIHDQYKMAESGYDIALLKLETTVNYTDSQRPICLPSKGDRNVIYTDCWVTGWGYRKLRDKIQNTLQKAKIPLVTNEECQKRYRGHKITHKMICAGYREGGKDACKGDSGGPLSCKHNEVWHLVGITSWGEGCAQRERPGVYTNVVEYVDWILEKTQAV
T1 sequence (P03951 19-387 partner limits assumed): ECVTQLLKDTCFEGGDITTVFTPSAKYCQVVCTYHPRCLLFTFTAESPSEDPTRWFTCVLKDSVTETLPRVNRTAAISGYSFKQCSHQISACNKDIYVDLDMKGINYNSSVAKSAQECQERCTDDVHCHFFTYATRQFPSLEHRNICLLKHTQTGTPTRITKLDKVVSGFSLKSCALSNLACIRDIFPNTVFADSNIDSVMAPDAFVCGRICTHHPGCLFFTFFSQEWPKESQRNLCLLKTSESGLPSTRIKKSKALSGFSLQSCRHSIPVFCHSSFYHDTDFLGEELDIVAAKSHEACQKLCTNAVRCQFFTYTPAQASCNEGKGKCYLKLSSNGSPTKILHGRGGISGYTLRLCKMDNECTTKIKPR

As to `Nc1nccc2cc(CNC(=O)c3cc(Cl)cnc3NCC3CCN(C4CCOCC4)CC3)ccc12` [Example 1.58], the IC50 in assay [1] was over 40 µM; in assay [2], 1000 to 3000 nM.
As to `Nc1nccc2cc(CNC(=O)c3cc(Cl)cnc3NCC3CCn4ccnc4C3)ccc12` (centres unmarked) [Example 1.59, N-((1-aminoisoquinolin-6-yl)methyl)-5-chloro-2-(((5,6,7,8-tetrahydroimidazo[1,2-a]pyridin-7-yl)methyl)amino)nicotinamide], the IC50 was over 40 µM in assay [1] and 300 to 1000 nM in assay [2].
Regarding `CN1CCC(Nc2ncc(Cl)cc2C(=O)NCc2ccc3c(N)nccc3c2)CC1` [Example 1.60], the values for the IC50 in assay [1] and in assay [2] were over 40 µM and 1000 to 3000 nM, respectively.
Regarding `CC(=O)N1CCC(CNc2ncc(Cl)cc2C(=O)NCc2ccc3c(N)nccc3c2)CC1` [Example 1.61], the IC50 was over 40 µM in assay [1] and 3000 to 10000 nM in assay [2].
Turning to `CS(=O)(=O)N1CCC(CNc2ncc(Cl)cc2C(=O)NCc2ccc3c(N)nccc3c2)CC1` [Example 1.62], the values for the IC50 in assay [1] and in assay [2] were over 40 µM and 3000 to 10000 nM, respectively.
With `Nc1nccc2cc(CNC(=O)c3cc(Cl)cnc3NCC3CCN(Cc4cccnc4)CC3)ccc12` [Example 1.63, N-[(1-amino-6-isoquinolyl)methyl]-5-chloro-2-[[1-(3-pyridylmethyl)-4-piperidyl]methylamino]pyridine-3-carboxamide], the IC50 in assay [1] is over 40 µM; in assay [2], 300 to 1000 nM.
`CC(C)N1CCCC(CNc2ncc(Cl)cc2C(=O)NCc2ccc3c(N)nccc3c2)C1` (centres unmarked) [Example 1.64, N-[(1-amino-6-isoquinolyl)methyl]5-chloro-2-[(1-isopropyl-3-piperidyl)methylamino]pyridine-3-carboxamide]: the IC50 in assay [1] was over 40 µM; in assay [2] it was 300 to 1000 nM.
On to `Nc1nccc2cc(CNC(=O)c3cc(Cl)cnc3NCC3CCN(Cc4cscn4)CC3)ccc12` [Example 1.65], for which the IC50 is over 40 µM in assay [1] and 3000 to 10000 nM in assay [2].
With `Nc1nccc2cc(CNC(=O)c3cc(Cl)cnc3NCC3CCN(Cc4nccs4)CC3)ccc12` [Example 1.66], the values for the IC50 in assay [1] and in assay [2] were over 40 µM and 3000 to 10000 nM, respectively.
Turning to `Cn1nccc1CN1CCC(CNc2ncc(Cl)cc2C(=O)NCc2ccc3c(N)nccc3c2)CC1` [Example 1.67], the 50% inhibitory concentration (IC50) in assay [1] is over 40 µM; in assay [2], 1000 to 3000 nM.
Consider `Cn1cc(CN2CCC(CNc3ncc(Cl)cc3C(=O)NCc3ccc4c(N)nccc4c3)CC2)cn1` [Example 1.68], for which the IC50 in assay [1] was over 40 µM; in assay [2], 300 to 1000 nM.
Take `CC(C)N1CCCC(C(=O)Nc2ncc(Cl)cc2C(=O)NCc2ccc3c(N)nccc3c2)C1` (centres unmarked) [Example 1.69]: the results for the IC50 in assay [1] and in assay [2] were over 40 µM and 3000 to 10000 nM, respectively.
As to `Nc1nccc2cc(CNC(=O)c3cc(Cl)cnc3NC[C@@H]3CCC(=O)N3)ccc12` [Example 1.70], the IC50 in assay [1] is over 40 µM; in assay [2], 10000 to 40000 nM.
As for `CC(Nc1ncc(Cl)cc1C(=O)NCc1ccc2c(N)nccc2c1)C1CCN(C)CC1` (centres unmarked) [Example 1.71], the IC50 in assay [1] is over 40 µM; in assay [2], 300 to 1000 nM.
Turning to `Nc1nccc2cc(CNC(=O)c3cc(Cl)cnc3NC[C@H]3CCC(=O)N3)ccc12` [Example 1.72, R—N-[(1-aminoisoquinoline-6-yl)methyl)-5-chloro-2-(((5-oxopyrrolidin-2-yl)methyl)amino)nicotinamide], the IC50 was 3.16 µM in assay [1] and 10000 to 40000 nM in assay [2].
In the same order, the values of `CN1CCC(CNc2ncccc2C(=O)NCc2ccc3c(N)nccc3c2)CC1` [Example 4.01, N-((1-aminoisoquinolin-6-yl)methyl)-2-(((1-methylpiperidin-4-yl)methyl)amino)nicotinamide] are over 40 µM and 1000 to 3000 nM.
Consider `Cc1cnc(NCC2CCN(C)CC2)c(C(=O)NCc2ccc3c(N)nccc3c2)c1` [Example 4.02], for which the IC50 in assay [1] is over 40 µM; in assay [2] it was 300 to 1000 nM.
In the same order, the values of `CN1CCC(CNc2nccnc2C(=O)NCc2ccc3c(N)nccc3c2)CC1` [Example 4.03, N-((1-aminoisoquinolin-6-yl)methyl)-3-(((1-methylpiperidin-4-yl)methyl)amino)pyrazine-2-carboxamide] are over 40 µM and 300 to 1000 nM.
As to `CN1CCC(CNc2cncc(C(=O)NCc3ccc4c(N)nccc4c3)n2)CC1` [Example 4.04], the IC50 is over 40 µM in assay [1] and 1000 to 3000 nM in assay [2].
As to `CN1CCC(CNc2cnc(C(=O)NCc3ccc4c(N)nccc4c3)cn2)CC1` [Example 4.05], the IC50 was over 40 µM in assay [1] and 3000 to 10000 nM in assay [2].
As to `COc1ccc(C(=O)NCc2ccc3c(N)nccc3c2)c(NCC2CCN(C)CC2)n1` [Example 4.06], the IC50 was over 40 µM in assay [1] and 1000 to 3000 nM in assay [2].
In the same order, the values of `CN1CCC(CNc2nc(Cl)ccc2C(=O)NCc2ccc3c(N)nccc3c2)CC1` [Example 4.07] are 23.6 µM and 300 to 1000 nM.
For `CN1CCC(CNc2nccc(Cl)c2C(=O)NCc2ccc3c(N)nccc3c2)CC1` [Example 4.08], in that order: over 40 µM and 10000 to 40000 nM.
Regarding `CN1CCC(CNc2ncc(Br)cc2C(=O)NCc2ccc3c(N)nccc3c2)CC1` [Example 4.09], the IC50 is over 40 µM in assay [1] and under 300 nM in assay [2].
Turning to `CN1CCC(CNc2ncc(C3CC3)cc2C(=O)NCc2ccc3c(N)nccc3c2)CC1` [Example 4.10], the IC50 in assay [1] is over 40 µM; in assay [2], 300 to 1000 nM.
For the molecule `CN1CCC(CNc2ncc(-c3cccnc3)cc2C(=O)NCc2ccc3c(N)nccc3c2)CC1` [Example 4.11, N-((1-aminoisoquinolin-6-yl)methyl)-6-(((1-methylpiperidin-4-yl)methyl)amino)-[3,3′-bipyridine]-5-carboxamide], the IC50 in assay [1] is over 40 µM; in assay [2] it was 300 to 1000 nM.
For `COc1cnc(NCC2CCN(C)CC2)c(C(=O)NCc2ccc3c(N)nccc3c2)c1` [Example 4.12], the IC50 was over 40 µM in assay [1] and 1000 to 3000 nM in assay [2].
For `Cc1ccc(C(=O)NCc2ccc3c(N)nccc3c2)c(NCC2CCN(C)CC2)n1` [Example 4.13], the IC50 is over 40 µM in assay [1] and 300 to 1000 nM in assay [2].
For `Cc1ccnc(NCC2CCN(C)CC2)c1C(=O)NCc1ccc2c(N)nccc2c1` [Example 4.14], the IC50 in assay [1] was over 40 µM; in assay [2], 10000 to 40000 nM.
In the case of `CN1CCC(CNc2nc(-c3ccccc3)ccc2C(=O)NCc2ccc3c(N)nccc3c2)CC1` [Example 4.15], the IC50 is over 40 µM in assay [1] and 1000 to 3000 nM in assay [2].
For `CN1CCC(CNc2nc(-c3cccnc3)ccc2C(=O)NCc2ccc3c(N)nccc3c2)CC1` [Example 4.16], the IC50 in assay [1] is over 40 µM; in assay [2] it was 300 to 1000 nM.
For the molecule `CN1CCC(CNc2nc(C3CC3)ccc2C(=O)NCc2ccc3c(N)nccc3c2)CC1` [Example 4.17], the IC50 in assay [1] was over 40 µM; in assay [2], 1000 to 3000 nM.
Consider `CN1CCC(CNc2ncc(-c3ccccc3)nc2C(=O)NCc2ccc3c(N)nccc3c2)CC1` [Example 4.18], for which the IC50 in assay [1] was 23.3 µM; in assay [2] it was 300 to 1000 nM.
In the case of `CN1CCC(CNc2nc(Cl)c(Cl)cc2C(=O)NCc2ccc3c(N)nccc3c2)CC1` [Example 4.19], the IC50 in assay [1] is over 40 µM; in assay [2], under 300 nM.
`CN1CCC(CNc2ncc(-c3cnn(C)c3)nc2C(=O)NCc2ccc3c(N)nccc3c2)CC1` [Example 4.20]: the IC50 is 12.7 µM in assay [1] and 300 to 1000 nM in assay [2].
Consider `Cc1cc(C(=O)NCc2ccc3c(N)nccc3c2)c(NCC2CCN(C)CC2)nc1C` [Example 4.21], for which the IC50 is over 40 µM in assay [1] and 300 to 1000 nM in assay [2].
For `Nc1nccc2cc(CNC(=O)c3nccnc3Nc3ccc(N4CCNCC4)cc3)ccc12` [Example 4.22], in that order: over 40 µM and 10000 to 40000 nM.
For `CN1CCc2c(cccc2Nc2nccnc2C(=O)NCc2ccc3c(N)nccc3c2)C1` [Example 4.23], in that order: over 40 µM and 300 to 1000 nM.
Turning to `CN1CCc2cc(Nc3nccnc3C(=O)NCc3ccc4c(N)nccc4c3)ccc2C1` [Example 4.24], the figures for the IC50 in assay [1] and in assay [2] were over 40 µM and 300 to 1000 nM, respectively.
For `Nc1nccc2cc(CNC(=O)c3nccnc3NCC3CCN(CCO)CC3)ccc12` [Example 4.25], in that order: over 40 µM and 300 to 1000 nM.
For the molecule `Nc1nccc2cc(CNC(=O)c3cnc(N4CCN(c5ccncc5)CC4)c(Cl)c3)ccc12` [Example 8.08], the IC50 is over 40 µM in assay [1] and 10000 to 40000 nM in assay [2].
In the same order, the values of `CN(CC1CCN(c2ccncc2)CC1)c1ncc(C(=O)NCc2ccc3c(N)nccc3c2)cc1Cl` [Example 8.09, N-[(1-amino-6-isoquinolyl)methyl]-5-chloro-6-[methyl-[[1-(4-pyridyl)-4-piperidyl]methyl]amino]pyridine-3-carboxamide] are over 40 µM and 1000 to 3000 nM.
`N#Cc1cccc(CNc2ncc(C(=O)NCc3ccc4c(N)nccc4c3)cc2Cl)c1` [Example 11.28]: the 50% inhibitory concentration (IC50) in assay [1] was over 40 µM; in assay [2] it was 10000 to 40000 nM.
